Like-named read-outs stand apart in the source and are kept apart here.
How the values were obtained:
HCV-Luc [1] = assay: HCV-Luc assay of (S)-CCZ combinations, MacSynergy II and CalcuSyn analysis; format: cell-based; conditions: for CalcuSyn CI value: (S)-CCZ in combination with the drug named; for antiviral effect of (S)-CCZ with the drug named: combination with (S)-CCZ
Procedure: Direct-acting antivirals, such as telaprevir and daclatasvir, were recently approved for therapy of hepatitis C. […] Using the MacSynergy II program based on Bliss independence model, three-dimensional surface plots were generated and log volume of synergism was calculated for each combination. The results were also analyzed with the CalcuSyn program, in which the combination indices were calculated.

[2] = ATPLite cytotoxicity assay; conditions: human
Description: (§1) EC50 was generated using the HCV-Luc infection assay and IC50 using the ATPLite assay.
(§2) EC50 was generated using the HCV-Luc infection assay and TC50 using the ATPLite assay.
(§3) The cytotoxicity of the compounds was further evaluated in HepG2 cells and primary human hepatocytes.

HCV-Luc [3] = assay: HCV-Luc infection assay; format: cell-based; conditions: for EC50: Hepatitis C virus
Huh7.5.1 cells = assay: in vitro; conditions: human
Description: as §1, §2, §3

Molecule | CC50 [2] [µM] | EC50 (HCV-Luc [3]; Table 6, read-out: EC50) [nM] | also measured
COC(=O)N[C@H](C(=O)N1CCC[C@H]1c1nc(-c2ccc(-c3ccc(-c4c[nH]c([C@@H]5CCCN5C(=O)[C@@H](NC(=O)OC)C(C)C)n4)cc3)cc2)c[nH]1)C(C)C [Daclataivir] | – | – | CalcuSyn CI value (HCV-Luc [1]): 0.427 ± 0.142
CC(C)(C)NC(=O)N[C@H](C(=O)N1C[C@H]2[C@@H]([C@H]1C(=O)NC(CC1CCC1)C(=O)C(N)=O)C2(C)C)C(C)(C)C (stereo partly drawn) [Boceprevir] | – | – | CalcuSyn CI value (HCV-Luc [1]): 0.691 ± 0.114
IFN-α | – | – | CalcuSyn CI value (HCV-Luc [1]): 0.609 ± 0.128; antiviral effect of (S)-CCZ with the drug named (HCV-Luc [1]): highly synergistic
NC(=O)c1ncn([C@@H]2O[C@H](CO)[C@@H](O)[C@H]2O)n1 [Ribavirin] | – | – | CalcuSyn CI value (HCV-Luc [1]): 0.630 ± 0.106; antiviral effect of (S)-CCZ with the drug named (HCV-Luc [1]): highly synergistic
OCCOCCN1CCN(C(c2ccccc2)c2ccc(Cl)cc2)CC1 (racemic) [CH2CH2OCH2CH2OH (R,S), 2-(2-(4-((4-Chlorophenyl)(phenyl)methyl)piperazin-1-yl)ethoxy)ethanol] | – | – | CC50 ([2]; Huh7.5.1 cells): 42.6 ± 1.8 µM; Selective Index (HCV-Luc [3]): 1331; EC50 (HCV-Luc [3]; Table 3, read-out: EC50): 32 ± 11 nM
Ic1ccc(CN2CCC(N(CCc3ccccc3)Cc3ccccc3)CC2)cc1 [Compound 4-Iodobenzyl, N-Benzyl-1-(4-iodobenzyl)-N-phenethylpiperidin-4-amine] | > 100 | 2980 | –
O=[S+]([O-])(c1ccccc1)N1CCC(N(CCc2ccccc2)Cc2ccccc2)CC1 [Phenylsulfonyl, N-Benzyl-N-phenethyl-1-(phenylsulfonyl)piperidin-4-amine] | > 100 | > 32600 | –
FC(F)(F)c1ccc(CN2CCC(N(CCc3ccccc3)Cc3ccccc3)CC2)cc1 [4-Trifluoromethylbenzyl, N-Benzyl-N-phenethyl-1-(4-(trifluoromethyl)benzyl)piperidin-4-amine] | > 100 | > 10000 | –
COC(=O)c1ccc(CN2CCC(N(CCc3ccccc3)Cc3ccccc3)CC2)cc1 [4-Methoxycarbonylbenzyl, Methyl 4-((4-(benzyl(phenethyl)amino)piperidin-1-yl)methyl)benzoate] | > 100 | 14000 | –
CCCCN1CCC(N(CCc2ccccc2)Cc2ccccc2)CC1 [Butyl, N-Benzyl-1-butyl-N-phenethylpiperidin-4-amine] | 17.9 | 1550 | –
c1ccc(CCN(Cc2ccccc2)C2CCN(Cc3ccc4c(c3)OCCO4)CC2)cc1 [N-Benzyl-1-((2,3-dihydrobenzo[b][1,4]dioxin-6-yl)methyl)-N-phenethylpiperidin-4-amine] | 36.6 | 2780 | –
CCC[C@H](NC(=O)[C@@H]1[C@H]2CCC[C@H]2CN1C(=O)[C@@H](NC(=O)[C@@H](NC(=O)c1cnccn1)C1CCCCC1)C(C)(C)C)C(=O)C(=O)NC1CC1 [Telaprevir] | – | – | CalcuSyn CI value (HCV-Luc [1]): 0.426 ± 0.138
[2H]C([2H])([2H])N1CCC(N(CCc2ccccc2)Cc2ccccc2)CC1 [CD3—, N-Benzyl-1-methyl(d3)-N-phenethylpiperidin-4-amine] | 100 | 7950 | –
CN1CCC(N(CCc2ccccc2)Cc2ccccc2)CC1 [Me, N-Benzyl-1-methyl-N-phenethylpiperidin-4-amine] | 41.1 | 920 | –
CCN1CCN([C@@H](c2ccccc2)c2ccc(Cl)cc2)CC1 [Et (S), (S)-1-((4-Chlorophenyl)(phenyl)methyl)-4-ethylpiperazine] | 40 ± 1.1 | – | CC50 (Huh7.5.1 cells): 40 ± 1.1 µM; EC50 (HCV-Luc [3]; Table 3, read-out: EC50): 20 ± 2 nM
Clc1ccc(CN2CCC(N(CCc3ccccc3)Cc3ccccc3)CC2)cc1 [4-Chlorobenzyl, N-Benzyl-1-(4-chlorobenzyl)-N-phenethylpiperidin-4-amine] | > 100 | 9240 | –

Molecule | CC50 [2] [µM] | EC50 (HCV-Luc [3]; Table 6, read-out: EC50) [nM] | also measured
O=C(c1ccccc1)N1CCC(N(CCc2ccccc2)Cc2ccccc2)CC1 [Benzoyl, (4-(Benzyl(phenethyl)amino)piperidin-1-yl)(phenyl)methanone] | 94 | 24800 | –
Brc1ccc(CN2CCC(N(CCc3ccccc3)Cc3ccccc3)CC2)cc1 [4-Bromobenzyl, N-Benzyl-1-(4-bromobenzyl)-N-phenethylpiperidin-4-amine] | > 100 | 4330 | –
N#Cc1ccc(CN2CCC(N(CCc3ccccc3)Cc3ccccc3)CC2)cc1 [4-Cyanobenzyl, 4-((4-(Benzyl(phenethyl)amino)piperidin-1-yl)methyl)benzonitrile] | 100 | 5860 | –
CC(C)OC(=O)[C@H](C)N[P@](=O)(OC[C@H]1O[C@@H](n2ccc(=O)[nH]c2=O)[C@](C)(F)[C@@H]1O)Oc1ccccc1 [Sofosbuvir] | – | – | CalcuSyn CI value (HCV-Luc [1]): 0.362 ± 0.075; antiviral effect of (S)-CCZ with the drug named (HCV-Luc [1]): highly synergistic
CC(C)N1CCC(N(CCc2ccccc2)Cc2ccccc2)CC1 [Isopropyl, N-Benzyl-1-isopropyl-N-phenethylpiperidin-4-amine] | 37.6 | 940 | –
NCCOCCOCCOCCOCCN1CCN(C(c2ccccc2)c2ccc(Cl)cc2)CC1 (racemic) [(CH2CH2O)4CH2CH2NH2 (R,S), 14-(4-((4-Chlorophenyl)(phenyl)methyl)piperazin-1-yl)-3,6,9,12-tetraoxatetradecan-1-amine] | 12.2 ± 0.8 | – | CC50 (Huh7.5.1 cells): 12.2 ± 0.8 µM; EC50 (HCV-Luc [3]; Table 3, read-out: EC50): 4 ± 2.2 nM; Selective Index (HCV-Luc [3]; Table 3): 3050; Selective Index (HCV-Luc [3]; Table 4): 3050
CC(=O)N1CCC(N(CCc2ccccc2)Cc2ccccc2)CC1 [Acetyl, 1-(4-(Benzyl(phenethyl)amino)piperidin-1-yl)ethanone] | 74.5 | > 31600 | –
c1ccc(CCN(Cc2ccccc2)C2CCNCC2)cc1 [H, N-Benzyl-N-phenethylpiperidin-4-amine] | 23.5 | 120 | –
c1ccc(CCN(Cc2ccccc2)C2CCN(Cc3ccc(-c4ccccc4)cc3)CC2)cc1 [4-Phenylbenzyl, 1-([1,1′-Biphenyl]-4-ylmethyl)-N-benzyl-N-phenethylpiperidin-4-amine] | > 100 | 12200 | –
c1ccc(CCN(Cc2ccccc2)C2CCN(C3CCCCC3)CC2)cc1 [Cyclohexyl, N-Benzyl-1-cyclohexyl-N-phenethylpiperidin-4-amine] | 33.8 | 1500 | –
c1ccc(CCN(Cc2ccccc2)C2CCN(c3ccccc3)CC2)cc1 [Phenyl, N-Benzyl-N-phenethyl-1-phenylpiperidin-4-amine] | > 100 | – | EC50 (HCV-Luc [3]): > 31600 nM
FC(F)(F)CN1CCC(N(CCc2ccccc2)Cc2ccccc2)CC1 [CF3CH2—, N-Benzyl-N-phenethyl-1-(2,2,2-trifluoroethyl)piperidin-4-amine] | > 100 | > 31600 | –
COc1cccc(CN2CCC(N(CCc3ccccc3)Cc3ccccc3)CC2)c1 [3-Methoxybenzyl, N-Benzyl-1-(3-methoxybenzyl)-N-phenethylpiperidin-4-amine] | 45.2 | 1570 | –
c1ccc(CCN2CCC(N(CCc3ccccc3)Cc3ccccc3)CC2)cc1 [2-Phenylethyl, N-Benzyl-N,1-diphenethylpiperidin-4-amine] | > 100 | 16200 | –
CCCN1CCC(N(CCc2ccccc2)Cc2ccccc2)CC1 [Propyl, N-Benzyl-N-phenethyl-1-propylpiperidin-4-amine] | 38.2 | 370 | –
COc1ccc(CN2CCC(N(CCc3ccccc3)Cc3ccccc3)CC2)cc1 [4-Methoxybenzyl, N-Benzyl-1-(4-methoxybenzyl)-N-phenethylpiperidin-4-amine] | 27.8 | – | EC50 (HCV-Luc [3]): 4350 nM

From patent publication US20170001988A1, “PIPERIDINE AND PIPERAZINE DERIVATIVES AND THEIR USE IN TREATING VIRAL INFECTIONS AND CANCER” (THE UNITED STATES OF AMERICA, AS REPRESENTED BY THE …, priority 2013, published 2017)
